Measurements reported in US10479810B2, “Crystal form of tenofovir alafenamide salt, preparation method and use thereof” (SHANGHAI BEGREAT PHARMATECH, priority 2016, dated 2019).
Like-named read-outs stand apart in the source and are kept apart here.

Conditions: for TAF total degradation impurities %: mixtures with emtricitabine at weight ratio about 1:15, HPLC
Experimental: In this patent, TAF fumarate crystal form I (prepared according to the method of WO2013025788A1), TAF fumarate crystal form II, TAF fumarate crystal form A and TAF fumarate crystal form B and emtricitabine are compared. The mixture was mixed at a weight ratio of about 1:15, placed at 40° C. and a relative humidity of 75%, and placed open for 21 days. The degradation of TAF was analyzed by HPLC at 0 days and 21 day.

Compound	chemical compatibility of TAF with emtricitabine (compared with TAF hemifumarate crystal form I in combination with emtricitabine)	TAF total degradation impurities % (0 day) [%]	TAF total degradation impurities % (21 day, 40° C., relative humidity 75%, placed open) [%]
CC(C)OC(=O)[C@H](C)N[P@](=O)(CO[C@H](C)Cn1cnc2c(N)ncnc21)Oc1ccccc1.O=C(O)/C=C/C(=O)O [TAF fumarate Form II, 9-[(R)-2-[[(S)-[[(S)-1-(isopropoxycarbonyl)ethyl]amino]phenoxyphosphinyl]methoxy]propyl]adenine fumarate]	significantly improve		
Tenofovir alafenamide hemifumarate [TAF fumarate Form I]		0.1	0.9
